The IC50 is the concentration that inhibits the measured activity by half.

IC50 data for 22 compounds are collected here from US20260184707A1, “PHARMACEUTICAL COMPOUNDS FOR THE TREATMENT OF COMPLEMENT MEDIATED DISORDERS” (ALEXION PHARMACEUTICALS, INC., priority 2022, published 2026).

For the assay, the target named is T1, Human complement C1s enzyme (Homo sapiens, UniProt P09871).
T1 construct: purified from human serum, Complement Technology, Inc; purchased Complement Technology, Inc; host or cells: human serum (plasma-derived native protein)
T1 sequence (P09871 438-688 limits assumed): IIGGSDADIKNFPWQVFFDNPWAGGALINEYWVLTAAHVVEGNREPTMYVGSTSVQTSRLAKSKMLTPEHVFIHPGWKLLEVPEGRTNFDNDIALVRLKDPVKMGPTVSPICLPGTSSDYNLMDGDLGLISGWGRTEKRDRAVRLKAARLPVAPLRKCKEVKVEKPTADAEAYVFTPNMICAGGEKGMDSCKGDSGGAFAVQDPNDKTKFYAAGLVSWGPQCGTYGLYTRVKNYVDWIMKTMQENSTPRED
T1 sequence (P09871 16-437 partner limits assumed): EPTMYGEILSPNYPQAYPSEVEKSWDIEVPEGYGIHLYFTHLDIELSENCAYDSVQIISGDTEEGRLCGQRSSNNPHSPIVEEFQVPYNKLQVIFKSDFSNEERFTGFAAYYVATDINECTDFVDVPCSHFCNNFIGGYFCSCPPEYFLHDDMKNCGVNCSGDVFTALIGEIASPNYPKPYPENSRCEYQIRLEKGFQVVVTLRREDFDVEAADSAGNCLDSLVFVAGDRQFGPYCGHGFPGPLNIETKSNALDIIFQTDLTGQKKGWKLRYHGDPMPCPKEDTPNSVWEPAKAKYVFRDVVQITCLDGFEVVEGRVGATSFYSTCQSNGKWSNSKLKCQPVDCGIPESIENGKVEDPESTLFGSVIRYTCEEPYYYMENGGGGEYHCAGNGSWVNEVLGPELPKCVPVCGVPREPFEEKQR
Briefly: Human C1s enzyme assay. To be noted: human complement C1s enzyme 1.16 nM, substrate Z-L-Lys-SBzl, A405; read-out: IC50 (Stars). The assay is classed as biochemical. On the procedure:
The […] values of the compounds of Table 1 were determined with the human C1s enzyme assay described below. Other standard complement assays are also available.
Human complement C1s enzyme (purified from human serum, Complement Technology, Inc.) at 1.16 nM final concentration was incubated with test compound at various concentrations for 5 min at room temperature in 50 mM Tris, 1 M NaCl, pH 7.5. A synthetic substrate Z-L-Lys-SBzl and DTNB (Ellman's reagent) were added to final concentrations of 100 μM each. Absorbance at 405 nm (A405) was recorded at 30 second intervals for […] using a microplate spectrophotometer. IC values were calculated by nonlinear regression of complement C1s reaction rates as a function of test compound concentration.
[…]; ND indicates a compound for which the IC50 value is not determined.

`Cc1ccc(F)c(-c2ncc(NCCCc3ccccc3)c(=O)n2CC(=O)NCc2cc3cnccc3[nH]2)c1` [Compound 439, N-((1H-pyrrolo[3,2-c]pyridin-2-yl)methyl)-2-(2-(2-fluoro-5-methylphenyl)-6-oxo-5-((3-phenylpropyl)amino)pyrimi-din-1(6H)-yl)acetamide]: the IC50 was below 100 nM.

Consider `C[C@H](Nc1cnc(-c2ccc(S(F)(F)(F)(F)F)cc2)n(CC(=O)NCc2cc3cnccc3[nH]2)c1=O)c1ccc2oc3ccccc3c2c1` [Compound 296, (S)-N-((1H-pyrrolo[3,2-c]pyridin-2-yl)methyl)-2-(5-((1-(dibenzo[b,d]furan-2-yl)ethyl)-amino)-6-oxo-2-(4-(penta-fluoro-lambda6-sulfaneyl)-phenyl)pyrimidin-1(6H)-yl)-acetamide], for which the IC50 is below 100 nM.

For `CO[C@@H]1CO[C@H]2[C@@H]1OC[C@H]2Oc1ccc(-c2ncc(NC(=O)c3ccc(-c4ccccc4)s3)c(=O)n2CC(=O)NCc2cc3cnccc3[nH]2)cc1` [Compound 249, N-(1-(2-(((1H-pyrrolo[3,2-c]pyridine-2-yl)methyl)amino)-2-oxoethyl)-2-(4-(((3R,3aR,6R,6aR)-6-methoxyhexahydrofuro[3,2-b]furan-3-yl)oxy)phenyl)-6-oxo-1,6-dihydropyrimidin-5-yl)-5-phenylthiophene-2-carboxamide], the IC50 was below 100 nM.

As for `O=C(Cn1c(-c2ccccc2)ncc(NCc2ccc3sc4ccccc4c3c2)c1=O)NCc1cc2cnccc2[nH]1` [Compound 259, N-((1H-pyrrolo[3,2-c]pyridin-2-yl)methyl)-2-(5-((dibenzo [b,d]thiophen-2-ylmethyl)-amino)-6-oxo-2-phenylpyrimi-din-1(6H)-yl)acetamide], the IC50 was below 100 nM.

Take `C[C@@H](Nc1ncc(N2CCCCC2)n(CC(=O)NCc2cc3cnccc3[nH]2)c1=O)c1ccc(-c2ccccc2F)cc1` [Compound 423, (R)-N-((1H-pyrrolo[3,2-c]pyridin-2-yl)methyl)-2-(3-((1-(2′-fluoro-[1,1′-biphenyl]-4-yl)ethyl)amino)-2-oxo-6-(piperidin-1-yl)pyrazin-1(2H)-yl)acetamide]: the IC50 was below 100 nM.

For `C[C@@H](Nc1ncc(N2CCNCC2)n(CC(=O)NCc2cc3cnccc3[nH]2)c1=O)c1ccc2oc3ccccc3c2c1` [Compound 444, (R)-N-((1H-pyrrolo[3,2-c]pyridin-2-yl)methyl)-2-(3-((1-(dibenzo[b,d]furan-2-yl)ethyl)-amino)-2-oxo-6-(piperazin-1-yl)pyrazin-1(2H)-yl)acetamide], the IC50 is below 100 nM.

`Cc1ncc(NC(=O)c2csc(-c3ccccc3)n2)c(=O)n1CC(=O)NCc1cc2cnccc2[nH]1` [Compound 406, N-(1-(2-(((1H-pyrrolo[3,2-c]pyridine-2-yl)methyl)amino)-2-oxoethyl)-2-methyl-6-oxo-1,6-dihydropyrimidin-5-yl)-2-phenylthiazole-4-carboxamide]: the IC50 lay in the range of 100 to 1000 nM.

`C[C@H](Nc1cnc(-c2cnn(C)c2)n(CC(=O)NCc2cc3cnccc3[nH]2)c1=O)c1ccc2oc3ccccc3c2c1` [Compound 283, (S)-N-((1H-pyrrolo[3,2-c]pyr-idin-2-yl)methyl)-2-(5-((1-(dibenzo[b,d]furan-2-yl)ethyl)-amino)-2-(1-methyl-1H-pyr-azol-4-yl)-6-oxopyrimidin-1(6H)-yl)acetamide]: the IC50 is below 100 nM.

As for `C[C@@H](Nc1ncc(N2CCOCC2)n(CC(=O)NCc2cc3cnccc3[nH]2)c1=O)c1ccc(-c2ccccc2F)cc1` [Compound 417, (R)-N-((1H-pyrrolo[3,2-c]pyridin-2-yl)methyl)-2-(3-((1-(2′-fluoro-[1,1′-biphenyl]-4-yl)ethyl)amino)-6-morpholino-2-oxopyrazin-1(2H)-yl)acet-amide], the IC50 was below 100 nM.

Regarding `O=C(Cn1c(-c2ccccc2)ncc(-c2nc3ccc(Oc4ccccc4)cc3[nH]2)c1=O)NCc1cc2cnccc2[nH]1` [Compound 81, N-((1H-pyrrolo[3,2-c]pyridin-2-yl)methyl)-2-(6-oxo-5-(6-phenoxy-1H-benzo[d]imidazol-2-yl)-2-phenylpyrimidin-1(6H)-yl)acetamide], the IC50 was above 1000 nM.

As to `N#Cc1ccc(CCNc2cnc(-c3ccccc3)n(CC(=O)NCc3cc4cnccc4[nH]3)c2=O)cc1` [Compound 28, N-((1H-pyrrolo[3,2-c]pyridine-2-yl)methyl)-2-(5-((4-cyanophenethyl)amino)-6-oxo-2-phenylpyrimidin-1(6H)-yl)acetamide], the IC50 is below 100 nM.

Regarding `C[C@H](Nc1cnc(-c2ccccc2F)n(CC(=O)NCc2cc3cnccc3[nH]2)c1=O)c1ccc2c(c1)oc1ccccc12` [Compound 309, (S)-N-((1H-pyrrolo[3,2-c]pyridin-2-yl)methyl)-2-(5-((1-(dibenzo[b,d]furan-3-yl)ethyl)-amino)-2-(2-fluorophenyl)-6-oxopyrimidin-1(6H)-yl)acet-amide], the IC50 is below 100 nM.

In the case of `C[C@@H](Nc1ncc(-c2ccccc2F)n(CC(=O)NCc2cc3cnccc3[nH]2)c1=O)c1ccc(-c2ccccc2F)cc1` [Compound 418, (R)—N-((1H-Pyrrolo[3,2-c]pyridine-2-yl)methyl)-2-(3-((1-(2′-fluoro-[1,1′-biphenyl]-4-yl)ethyl)amino)-6-(2-fluorophenyl)-2-oxopyrazin-1(2H)-yl)acetamide], the IC50 is below 100 nM.

As for `C[C@@H](Nc1cnc(-c2ccc(=O)n(C)c2)n(CC(=O)NCc2cc3cnccc3[nH]2)c1=O)c1ccc2oc3ccccc3c2c1` [Compound 290, (R)-N-((1H-pyrrolo[3,2-c]pyr-idin-2-yl)methyl)-2-(5-((1-(dibenzo[b,d]furan-2-yl)ethyl)-amino)-2-(1-methyl-6-oxo-1,6-dihydropyridin-3-yl)-6-oxopyr-imidin-1(6H)-yl)acetamide], the IC50 lay within 100 to 1000 nM.

Regarding `Cc1cc(F)cc(C)c1Nc1cnc(-c2ccccc2)n(CC(=O)NCc2cc3cnccc3[nH]2)c1=O` [Compound 244, N-((1H-pyrrolo[3,2-c]pyridin-2-yl)methyl)-2-(5-((4-fluoro-2,6-dimethylphenyl)amino)-6-oxo-2-phenylpyrimidin-1(6H)-yl)acetamide], the IC50 is below 100 nM.

For the compound `C[C@@H](Nc1cnc(N2CCCCC2)n(CC(=O)NCc2cc3cnccc3[nH]2)c1=O)c1nc(-c2ccccc2)co1` [Compound 487, (R)—N-((1H-Pyrrolo[3,2-c]pyridine-2-yl)methyl)-2-(6-oxo-5-((1-(4-phenyloxazol-2-yl)ethyl)amino)-2-(piperidin-1-yl)pyrimidin-1(6H)-yl) acetamide], the concentration for half-maximal inhibition (IC50) is below 100 nM.

For the compound `O=C(Cn1c(-c2ccccc2)ncc(NC(=O)C2CCC(c3ccccc3)CC2)c1=O)NCc1cc2cnccc2[nH]1` (stereo not shown) [Compound 254, N-(1-(2-(((1H-pyrrolo[3,2-c]pyridin-2-yl)methyl)amino)-2-oxoethyl)-6-oxo-2-phenyl-1,6-dihydropyrimidin-5-yl)-4-phen-ylcyclohexane-1-carboxamide], the IC50 was below 100 nM.

As for `O=C(Cn1c(-c2ccccc2)cnc(NCc2ccc(Oc3ccccc3)cc2)c1=O)NCc1cc2cnccc2[nH]1` [Compound 63, N-((1H-pyrrolo[3,2-c]pyridine-2-yl)methyl)-2-(2-oxo-3-((4-phenoxybenzyl)amino)-6-phenylpyrazin-1(2H)-yl)acetamide], the IC50 was below 100 nM.

As for `O=C(Cn1c(-c2ccccc2)ncc(NCCCc2ccccc2)c1=O)N[C@H](CO)c1cc2cnccc2[nH]1` [Compound 15, (S)-N-(2-hydroxy-1-(1H-pyr-rolo[3,2-c]pyridin-2-yl)ethyl)-2-(6-oxo-2-phenyl-5-((3-phen-ylpropyl)amino)pyrimidin-1(6H)-yl)acetamide], the IC50 was above 1000 nM.

As for `O=C(Cn1c(-c2ccccc2)ncc(-c2nc3ccccc3[nH]2)c1=O)NCc1cc2cnccc2[nH]1` [Compound 82, 2-(5-(1H-benzo[d]pyridine-2-yl)-6-oxo-2-phenylpyrimidin-1(6H)-yl)-N-((1H-pyrrolo[3,2-c]pyridine-2-yl)methyl)acetamide], the IC50 is above 1000 nM.

On to `C[C@@H](Nc1cnc(N2CCC(F)(F)C2)n(CC(=O)NCc2cc3cnccc3[nH]2)c1=O)c1ccc2oc3ccccc3c2c1` [Compound 401, (R)-N-((1H-pyrrolo[3,2-c]pyridin-2-yl)methyl)-2-(5-((1-(dibenzo[b,d]furan-2-yl)ethyl)-amino)-2-(3,3-difluoropyrroli-din-1-yl)-6-oxopyrimidin-1(6H)-yl)acetamide], for which the IC50 is 100 to 1000 nM.

In the case of `O=C(Cn1c(-c2ccccc2)ncc(NC(=O)c2ccc(Oc3ccccc3)o2)c1=O)NCc1cc2cnccc2[nH]1` [Compound 57, N-(1-(2-(((1H-pyrrolo[3,2-c]pyridin-2-yl)methyl)amino)-2-oxoethyl)-6-oxo-2-phenyl-1,6-dihydropyrimidin-5-yl)-5-phen-oxyfuran-2-carboxamide], the IC50 is below 100 nM.
